Read-outs that look alike come from different tables or passages of the source.
Tests used:
Type in all cases: in vivo
Tomato plants = assay: Phytotoxicity on treated tomato plants (Example 10, comparative); details: 250 ppm a.i.
Text: (§1) Visual surveys were effected 7 days after each infection/treatment, analyzing 10 plants per plot, analyzing the percentage of leaf surface affected.

[1] = tested on: Pseudomonas syringae pv tomato; assay: Biological evaluation of cupric salts of carboxylic acids on Pseudomonas syringae pv tomato, tomato plants in cold greenhouse (Example 10, comparative); details: 250 ppm a.i., survey 7 days after infection/treatment, 10 plants per plot
Text: Biological Evaluation of Cupric Salts of Carboxylic Acids on Pseudomonas syringae pv tomato
A comparison was effected between the bactericidal activity of various cupric salts of carboxylic acids described in patent application US2009/136581 with that of crystalline foiin 1.
(§2) The day after application, the plants were infected with a suspension of bacterial cells previously cultivated in Nutrient Broth culture broth, at a bacterium-broth concentration of 1:4.
(§3) The inoculum, kept under stirring for 2 days, was sprayed on the plants in the morning, in guttation phase, with knapsack sprayers.
as §1

[2] = tested on: Pseudomonas syringae pv tomato; details: survey 7 days after infection/treatment; for Leaf surface affected (%): tomato plants
Text: Biological Evaluation of the […] of […] on Pseudomonas syringae pv tomato
In the above table, SC is an abbreviation of “concentrated aqueous suspension” and TQ of “as such”.
as §2, §3
Visual surveys were effected 7 days after each infection/treatment, analyzing 50 plants per plot, analyzing the percentage of plants infected and the percentage of leaf surface affected.

O=C(O)CCCC(=O)O.[Cu] [Copper glutarate]
Phytotoxicity (%) (Tomato plants): 0%
Leaf surface affected (%) [1]: 69%

O=C(O)CC(O)C(=O)O.[Cu] (centres unmarked) [Copper malate]
Phytotoxicity (%) (Tomato plants): 20%
Leaf surface affected (%) [1]: 5%

O=C(O)CCC(=O)O.[Cu] [Copper succinate]
Phytotoxicity (%) (Tomato plants): 0%
Leaf surface affected (%) [1]: 50%

O=C([O-])C(O)C(O)C(=O)[O-].[Cu+2] (centres unmarked) [Copper tartrate]
Phytotoxicity (%) (Tomato plants): 0%
Leaf surface affected (%) [1]: 69%

[Cu+2].[OH-].[OH-] [Cu(OH)2, copper hydroxide]
Quantity infected plants (%) ([2]; 6.25 g a.i./100 l): 37.5%
Quantity infected plants (%) ([2]; 12.5 g a.i./100 l): 35.7%
Quantity infected plants (%) ([2]; 25 g a.i./100 l, 500 l per hectare, 50 plants per plot): 31.0%
Leaf surface affected (%) ([2]; 6.25 g a.i./100 l): 3.4%
Leaf surface affected (%) ([2]; 12.5 g a.i./100 l): 4.9%
Leaf surface affected (%) ([2]; 25 g a.i./100 l, 500 l per hectare): 3.9%

O=C(O)c1ccccc1O [Salicylic acid]
Quantity infected plants (%) ([2]; 13.6 g a.i./100 l): 40.7%
Quantity infected plants (%) ([2]; 27.2 g a.i./100 l): 31.5%
Quantity infected plants (%) ([2]; 54.2 g a.i./100 l): 36.3%
Leaf surface affected (%) ([2]; 13.6 g a.i./100 l): 4.7%
Leaf surface affected (%) ([2]; 27.2 g a.i./100 l): 3.9%
Leaf surface affected (%) ([2]; 54.2 g a.i./100 l): 3.5%
